We go through 8 molecules from ChEMBL document CHEMBL5104140, “Bicyclic pyrimidine compounds as potent IRAK4 inhibitors” (Bioorg Med Chem Lett, 2022).

In series [1] the target is T1, Interleukin-1 receptor-associated kinase 4 (Homo sapiens, UniProt Q9NWZ3).
T1 sequence (Q9NWZ3 whole entry): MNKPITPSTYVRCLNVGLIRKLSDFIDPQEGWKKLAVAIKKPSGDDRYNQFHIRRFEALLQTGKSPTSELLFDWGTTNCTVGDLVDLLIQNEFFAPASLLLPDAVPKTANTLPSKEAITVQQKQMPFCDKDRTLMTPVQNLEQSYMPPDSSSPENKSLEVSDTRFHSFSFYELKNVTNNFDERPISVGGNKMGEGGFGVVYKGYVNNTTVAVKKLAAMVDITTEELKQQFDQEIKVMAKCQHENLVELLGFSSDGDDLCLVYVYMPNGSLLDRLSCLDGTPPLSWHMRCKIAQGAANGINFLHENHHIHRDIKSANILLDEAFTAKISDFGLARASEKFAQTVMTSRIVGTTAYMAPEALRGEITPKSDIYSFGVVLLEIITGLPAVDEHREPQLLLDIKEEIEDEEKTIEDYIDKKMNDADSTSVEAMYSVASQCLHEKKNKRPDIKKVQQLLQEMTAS
Put plainly: Inhibition of IRAK4 (unknown origin).

Series [2] is described as follows: Oral bioavailability in rat at 5 mg/kg. The class given is ADME, organism-based. Particulars: in vivo.
Series [3] is described as follows: Antiinflammatory activity against human dendritic cells assessed as inhibition of LPS induced IL-23 production. Particulars: Dendritic cell. Format: functional, cell-based.
In another series the test system is PAD. Put plainly: Induction of PAD activity against human A549 cells. Format: toxicity, cell-based.
Series [4] in a line: Clearance in rat at 1 mg/kg, iv. To be noted: in vivo. Format: ADME, organism-based.
Series [5] has as its system Mus musculus. Put plainly: Antiinflammatory activity against mouse assessed as inhibition of IL-1 beta-stimulated IL-6 expression at 75 mg/kg. The class given is functional.
A further series deals with THP-1. Nature of the series: Antiinflammatory activity against human THP-1 cells assessed as inhibition of LPS induced IL-23 production. The class given is functional, cell-based.
The nature of series [6]: Plasma concentration in mouse at 75 mg/kg measured after 0.5 hrs. The class given is ADME, organism-based.
A short description of series [7]: Drug metabolism in rat liver microsomes assessed as oxidative metabolite formation. Format: ADME, Microsome. Background: Liver microsomes are vesicles of endoplasmic reticulum, rich in cytochrome P450 enzymes.
For series [8], the system named is Mus musculus. Put plainly: Antiinflammatory activity against mouse assessed as inhibition of IL-1 beta-stimulated IL-6 expression at 5 mg/kg. Format: functional.
The subject of series [9] is Mus musculus. Put plainly: Antiinflammatory activity against mouse assessed as inhibition of IL-1 beta-stimulated IL-6 expression at 15 mg/kg. Format: functional.
Series [10] has as its system Rattus norvegicus. Put plainly: Antiinflammatory activity against collagen-induced arthritis rat model assessed as inhibition of disease progression at 30 mg/kg, bid. Format: functional.
Series [11] deals with Mus musculus. Put plainly: Antiinflammatory activity against mouse assessed as inhibition of IL-1 beta-stimulated IL-6 expression at 45 mg/kg. Format: functional.
Series [12] has as its system Rattus norvegicus. Put plainly: Antiinflammatory activity against collagen-induced arthritis rat model assessed as inhibition of disease progression at 5 mg/kg, bid. Format: functional.
For series [13], the system named is Rattus norvegicus. Nature of the series: Antiinflammatory activity against collagen-induced arthritis rat model assessed as inhibition of disease progression at 20 mg/kg, bid. The class given is functional.
Series [14] has as its system Rattus norvegicus. Nature of the series: Antiinflammatory activity against collagen-induced arthritis rat model assessed as inhibition of disease progression at 10 mg/kg, bid. Format: functional.

As usually defined, the IC50 is the midpoint of a concentration-inhibition curve. In general, bioavailability refers to the share of a dose that reaches the circulation, judged against a reference dose that is usually intravenous. As usually defined, the clearance is the rate of elimination divided by the concentration. High values mean efficient removal, low ones inefficient removal. A word on the inhibition in vivo: it is the change of the read-out against control, counted positive when it falls. In the case of `NC(=O)[C@@H]1[C@H](Nc2nc(Nc3cc(F)cc(N4CCOCC4)c3)nc3ccn(C(F)F)c23)[C@H]2C=C[C@@H]1C2`, the IC50 amounted to 9 nM in series [1], 260 nM in series [3], 1000 nM with PAD and 220 nM with THP-1. In [2], the bioavailability worked out at 37%. The molecule further yielded a clearance in [4] of 10 mL/min/kg. In addition, the inhibition in vivo at 75 mg/kg in the series on Mus musculus [5] is 0%.

For `NC(=O)[C@@H]1[C@H](Nc2nc(Nc3cc(F)cc(N4CCOCC4)c3)nc3ccsc23)[C@H]2C=C[C@@H]1C2`, the IC50 was found to be 12 nM in series [1], 230 nM in series [3], 2300 nM in the series on PAD and 110 nM in the series with THP-1. Besides, in series [2], the bioavailability amounted to 24%. The molecule further had a clearance in series [4] of 40 mL/min/kg. In the series on Mus musculus [5], the inhibition in vivo at 75 mg/kg is 30%.

For `Cn1ccc2nc(Nc3cccc(C(=O)N4CCCC4)c3)nc(N[C@H]3[C@@H](C(N)=O)[C@@H]4C=C[C@H]3C4)c21`, the IC50 in [1] worked out at 4 nM; in series [3], 260 nM; with PAD, 9400 nM; with THP-1, 130 nM. The same molecule came in with a bioavailability in [2] of 1%. In series [4], the clearance worked out at 58 mL/min/kg.

For the molecule `Cc1n[nH]c2nc(Nc3cccc(C(=O)N4CCCC4)c3)nc(N[C@H]3[C@@H](C(N)=O)[C@@H]4C=C[C@H]3C4)c12`, the IC50 in series [1] was found to be 3 nM; in [3], 90 nM; in the series with PAD, 1600 nM; with THP-1, 80 nM. The concentration at 0.5 h in series [6] came out at 65 ng/mL. Also, the bioavailability in series [2] came to 27%. Also, the clearance in series [4] came to 63 mL/min/kg. The inhibition in vivo at 75 mg/kg in the series with Mus musculus [5] is 0%.

Turning to `NC(=O)[C@@H]1[C@H](Nc2nc(Nc3cccc(C(=O)N4CCCC4)c3)nc3ccsc23)[C@H]2C=C[C@@H]1C2`, the IC50 worked out at 40 nM in series [3], 3800 nM in the series with PAD and 90 nM with THP-1. Besides, the clearance in series [4] was 113 mL/min/kg. Besides, in series [7], the Drug metabolism entry is given as “Metabolite_Detected”.

Take `NC(=O)[C@@H]1[C@H](Nc2nc(Nc3cccc(C(=O)N4CCCC4)c3)nc3ccn(C(F)F)c23)[C@H]2C=C[C@@H]1C2`: the IC50 in series [1] turned out to be 2 nM; in series [3], 40 nM; with PAD, 1500 nM; in the series on THP-1, 130 nM. In addition, the concentration at 0.5 h in series [6] was 410 ng/mL. Moreover, in [2], the bioavailability was 8%. Moreover, the clearance in [4] worked out at 88 mL/min/kg. Besides, the inhibition in vivo at 75 mg/kg with Mus musculus [5] is 0%.

In the case of `CC(C)n1ncc2ccc(Nc3nc(N[C@H]4[C@@H](C(N)=O)[C@@H]5C=C[C@H]4C5)c4c(ccn4C(F)F)n3)cc21`, the IC50 came to 4.3 nM in series [1], 220 nM in series [3], 820 nM in the series with PAD and 230 nM with THP-1. Further, the inhibition in vivo at 5 mg/kg in the series with Mus musculus [8] is 9%. This molecule also displayed a bioavailability in series [2] of 43%. Moreover, the inhibition in vivo at 15 mg/kg in the series with Mus musculus [9] is 16%. Besides, in the series on Rattus norvegicus [10], the inhibition in vivo at 30 mg/kg came to 100%. The same molecule had a clearance in series [4] of 6 mL/min/kg. In the series with Mus musculus [5], the inhibition in vivo at 75 mg/kg was found to be 64%. In addition, the inhibition in vivo at 45 mg/kg in the series on Mus musculus [11] is 37%.

As to `NC(=O)[C@@H]1[C@H](Nc2nc(Nc3cc(F)cc(N4CCOCC4)c3)nc3ccoc23)[C@H]2C=C[C@@H]1C2`, the IC50 in [1] amounted to 15 nM; in [3], 140 nM; with PAD it was 3200 nM; in the series on THP-1, 250 nM. Besides, the inhibition in vivo at 5 mg/kg in the series with Rattus norvegicus [12] was found to be 30%. Also, in series [2], the bioavailability was 38%. In addition, the inhibition in vivo at 20 mg/kg with Rattus norvegicus [13] was 97%. The inhibition in vivo at 30 mg/kg with Rattus norvegicus [10] is 100%. The molecule further registered a clearance in series [4] of 53 mL/min/kg. Further, the inhibition in vivo at 75 mg/kg with Mus musculus [5] amounted to 65%. Moreover, the inhibition in vivo at 10 mg/kg in the series on Rattus norvegicus [14] is 56%.
